Common to all, as to assay type: cell-based
The target of assay [1] is T1, PR-B (Homo sapiens, UniProt P06401).
T1 sequence (P06401 1-933): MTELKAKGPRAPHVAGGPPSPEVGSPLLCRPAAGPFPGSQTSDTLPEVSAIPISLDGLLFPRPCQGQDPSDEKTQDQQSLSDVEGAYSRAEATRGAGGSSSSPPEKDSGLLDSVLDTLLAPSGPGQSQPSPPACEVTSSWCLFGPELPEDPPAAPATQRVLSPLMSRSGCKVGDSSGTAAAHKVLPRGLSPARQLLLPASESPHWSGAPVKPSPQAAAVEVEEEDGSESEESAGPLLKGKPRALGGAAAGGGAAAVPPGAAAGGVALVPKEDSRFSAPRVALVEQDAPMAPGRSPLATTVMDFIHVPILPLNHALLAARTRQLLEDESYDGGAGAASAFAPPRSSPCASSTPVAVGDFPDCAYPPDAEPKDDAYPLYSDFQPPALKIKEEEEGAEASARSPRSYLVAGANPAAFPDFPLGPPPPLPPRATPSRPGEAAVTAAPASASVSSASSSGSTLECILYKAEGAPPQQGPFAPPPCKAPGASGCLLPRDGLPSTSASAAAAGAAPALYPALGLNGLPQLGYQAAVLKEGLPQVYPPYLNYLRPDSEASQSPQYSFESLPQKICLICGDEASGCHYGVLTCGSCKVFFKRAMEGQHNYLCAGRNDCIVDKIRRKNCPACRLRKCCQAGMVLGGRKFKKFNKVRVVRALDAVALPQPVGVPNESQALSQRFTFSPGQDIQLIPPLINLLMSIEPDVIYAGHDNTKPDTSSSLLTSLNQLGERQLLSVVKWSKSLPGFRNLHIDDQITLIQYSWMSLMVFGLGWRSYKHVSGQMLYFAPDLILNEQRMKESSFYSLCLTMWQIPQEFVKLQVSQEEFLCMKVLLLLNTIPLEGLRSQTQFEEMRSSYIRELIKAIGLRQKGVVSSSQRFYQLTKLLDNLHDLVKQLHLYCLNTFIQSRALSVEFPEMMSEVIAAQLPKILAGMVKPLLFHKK
The assay is described as follows: Direct inhibition of PR-B transcriptional activity, CV-1 cells. Also on record: expressed in transfected cells; host or cells: CV-1, HepG2 (PRE2 tk-LUC); HeLa, also HepG2 and CV-1 (TAT promoter). Particulars: read-out: IC50 (50% maximal Inhibitory concentration), transcriptional activity of PR-B; in the presence of 10^-8 progesterone.

The test system of assay [2] is human vitamin D receptor. The assay is described as follows: VDR transcriptional activity on VDRE2 tk-LUC with PR-A, CV-1 cells. Particulars: absence or presence of progesterone, FIG. 7. An excerpt: The data shown represent the mean value +/- the average deviation from the mean of triplicate determinations;
To analyze the specificity of PR-A action, we examined its ability to affect other receptor-dependent transcription systems. For this purpose, phPR-A was cotransfected with a vector expressing the vitamin D receptor (VDR) and assayed on a VDRE2 tk-LUC reporter (available from Dr. J. Wesley Pike, Ligand Pharmaceuticals, Inc.).

In assay [3] the target is T1, PR-B. The assay is described as follows: PR-B regulation of TAT promoter. The note with it: data not shown. Also on record: expressed in transfected cells; host or cells: CV-1, HepG2 (PRE2 tk-LUC); HeLa, also HepG2 and CV-1 (TAT promoter). How it is done:
FIGS. 4A-4B are a series of graphs showing CV-1 ([…]) or HepG2 (FIG. 4B) cells that were transiently transfected with either […] of phPR-B or phPR-A alone, or phPR-B in the presence of increasing concentrations of phPR-A, together with 5 µg/ml of the PRE2 tk-LUC reporter and 5 µg/ml of pCH110 as an internal control. HeLa cells (FIG. 4C) were transfected with either phPR-B or phPR-A together with 5 µg/ml of the pTAT2950 reporter and 5 µg/ml of pCH110 as an internal control. […] The relative luciferase activity is calculated by dividing the normalized luciferase value at a given point by that obtained in the absence of transfected receptor or ligand. The data shown represent the mean +/- average deviation from the mean of triplicate estimations;
The 2.9 Kb fragment resulting from the digestion of the pTAT-CAT plasmid, and the 6.7 Kb fragment, containing the luciferase gene and the backbone resulting from MMTV-LUC digestion products, were ligated to create the plasmid TAT2950-LUC.
Cells were seeded in 12-well, 96-well or 10 cm tissue culture plates. […] 20 μg of DNA/ml of transfection buffer were used in each transfection reaction. […]

In the case of `CC#C[C@]1(O)CC[C@H]2[C@@H]3CCC4=CC(=O)CCC4=C3[C@@H](c3ccc(C(C)=O)cc3)C[C@@]21C` [ZK112993], the IC50 in assay [1] was 0.6 nM.

For the compound `CC(=O)[C@H]1CC[C@H]2[C@@H]3CCC4=CC(=O)CC[C@]4(C)[C@H]3CC[C@]12C` [progesterone], the “effect of PR-A co-expression on hormone-dependent transactivation by VDR” value in assay [2] is “not substantially affected”. The TAT promoter response entry in assay [3] (CV-1, PR-B) was “unresponsive to either receptor subtype”. Besides, the “TAT promoter response to progesterone” value in assay [3] (HepG2, phPR-B) is listed as “responded to progesterone”.

The record behind these values is patent US5506102A (priority 1993, dated 1996).
